How the values were obtained:
Integrin alpha-V/beta-3 [1] = molecular target: T1, Integrin alpha-V/beta-3 (Homo sapiens, UniProt P05106+P06756); assay: Inhibition of vitronectin binding to human alphaVbeta3 integrin expressed in PC3 cells; assay type: cell-based, PC-3
PC-3 [2] = assay: Cytotoxicity against human PC3 cells expressing […] integrin assessed as cell survival after 72 hrs by SRB assay; assay type: functional, cell-based; settings: PC-3, 72 h
Integrin alpha-V/beta-3 [3] = molecular target: T1, Integrin alpha-V/beta-3; assay: Inhibition of vitronectin binding to human alphaVbeta3 integrin over expressed in A2780 cells; assay type: cell-based
Integrin alpha-V/beta-3 [4] = molecular target: T1, Integrin alpha-V/beta-3; assay: Displacement of [125I]echistatin from integrin […] after 3 hrs by gamma counter; assay type: protein-complex assay
A2780 = assay: Cytotoxicity against human A2780 cells overexpressing […] integrin assessed as cell survival after 72 hrs by SRB assay; assay type: functional, cell-based; settings: A2780, 72 h
Integrin alpha-V/beta-5 = Integrin alpha-V/beta-5 (Homo sapiens, UniProt P06756+P18084); assay: Displacement of [125I]echistatin from integrin […] after 3 hrs by gamma counter; assay type: protein-complex assay
Integrin alpha-V/beta-5, sequence (P06756 31-889 limits assumed): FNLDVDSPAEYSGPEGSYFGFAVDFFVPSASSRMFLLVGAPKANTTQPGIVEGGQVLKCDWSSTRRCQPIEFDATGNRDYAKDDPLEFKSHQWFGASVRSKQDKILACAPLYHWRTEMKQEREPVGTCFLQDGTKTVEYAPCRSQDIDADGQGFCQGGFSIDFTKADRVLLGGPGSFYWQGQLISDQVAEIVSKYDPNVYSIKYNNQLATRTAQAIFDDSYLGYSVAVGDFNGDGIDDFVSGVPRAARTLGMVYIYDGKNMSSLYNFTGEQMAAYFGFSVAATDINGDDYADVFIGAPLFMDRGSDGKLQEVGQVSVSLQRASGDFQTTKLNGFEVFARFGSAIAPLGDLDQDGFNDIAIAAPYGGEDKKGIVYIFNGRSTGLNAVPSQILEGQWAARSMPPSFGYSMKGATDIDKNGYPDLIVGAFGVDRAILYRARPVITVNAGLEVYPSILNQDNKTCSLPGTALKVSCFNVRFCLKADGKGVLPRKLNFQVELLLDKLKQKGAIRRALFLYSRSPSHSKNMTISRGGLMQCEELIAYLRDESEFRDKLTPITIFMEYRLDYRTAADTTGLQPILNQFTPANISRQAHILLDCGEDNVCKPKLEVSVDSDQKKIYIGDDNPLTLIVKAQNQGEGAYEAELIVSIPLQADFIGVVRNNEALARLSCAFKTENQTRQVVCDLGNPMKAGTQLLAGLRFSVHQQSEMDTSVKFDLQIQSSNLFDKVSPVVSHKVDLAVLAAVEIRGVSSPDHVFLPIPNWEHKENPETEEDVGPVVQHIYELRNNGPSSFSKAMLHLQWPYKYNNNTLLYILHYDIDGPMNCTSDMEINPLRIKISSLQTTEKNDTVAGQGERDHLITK
Integrin alpha-V/beta-5, sequence (P06756 891-1048 limits assumed): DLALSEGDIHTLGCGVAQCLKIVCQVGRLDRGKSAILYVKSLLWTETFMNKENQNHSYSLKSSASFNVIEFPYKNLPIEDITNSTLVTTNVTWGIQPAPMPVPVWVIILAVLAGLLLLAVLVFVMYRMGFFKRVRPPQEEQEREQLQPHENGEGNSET
Integrin alpha-V/beta-5, sequence (P18084 24-799 limits assumed): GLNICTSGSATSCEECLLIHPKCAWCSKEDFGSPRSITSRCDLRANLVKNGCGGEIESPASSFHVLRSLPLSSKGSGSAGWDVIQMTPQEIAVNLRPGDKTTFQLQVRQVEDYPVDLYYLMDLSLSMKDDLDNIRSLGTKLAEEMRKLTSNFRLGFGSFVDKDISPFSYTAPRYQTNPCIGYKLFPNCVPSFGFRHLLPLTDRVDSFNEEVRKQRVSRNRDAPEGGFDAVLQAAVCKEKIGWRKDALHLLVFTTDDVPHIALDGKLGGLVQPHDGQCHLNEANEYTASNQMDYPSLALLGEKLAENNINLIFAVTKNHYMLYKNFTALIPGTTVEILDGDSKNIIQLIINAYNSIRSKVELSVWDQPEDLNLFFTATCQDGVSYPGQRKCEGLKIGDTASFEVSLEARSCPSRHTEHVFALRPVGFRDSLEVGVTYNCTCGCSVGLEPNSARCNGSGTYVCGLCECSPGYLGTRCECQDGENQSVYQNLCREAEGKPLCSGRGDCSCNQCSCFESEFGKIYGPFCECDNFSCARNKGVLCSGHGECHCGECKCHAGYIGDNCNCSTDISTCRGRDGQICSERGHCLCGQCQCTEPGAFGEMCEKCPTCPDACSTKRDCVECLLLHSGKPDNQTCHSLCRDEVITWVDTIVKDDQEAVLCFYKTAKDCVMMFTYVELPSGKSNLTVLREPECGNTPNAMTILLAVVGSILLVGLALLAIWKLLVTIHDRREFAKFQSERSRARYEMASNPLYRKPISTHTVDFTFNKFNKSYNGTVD

Mus musculus [5] = assay: Toxicity in CD1 nude mouse xenografted with human A498 cells assessed as body weight loss at 55 mg/10 mL/kg, ip q4d x 8 schedule administered on day 3 of tumor implantation measured after 10 days; assay type: organism-based; settings: in vivo, 240 h
Mus musculus [6] = assay: Toxicity in CD1 nude mouse xenografted with human A498 cells assessed as mortality at 55 mg/10 mL/kg, ip q4d x 8 schedule administered on day 3 of tumor implantation measured after 10 days; assay type: organism-based; settings: in vivo, 240 h
PC-3 [7] = assay: Antimetastatic activity against human PC3 cells xenografted in CD1 nude mouse assessed as area of metastases at 60 mg/10 mL/kg, ip q4d x 4 schedule administered on day 3 of tumor implantation measured after 31 days post tumor implantation; assay type: functional
PC-3 [8] = assay: Antimetastatic activity against human PC3 cells xenografted in CD1 nude mouse assessed as median survival time at 60 mg/10 mL/kg, ip q4d x 4 schedule administered on day 3 of tumor implantation measured after 31 days post tumor implantation; assay type: functional
[9] = Half life in rat plasma at 5 uM after 24 hrs by HPLC analysis; assay type: ADME, cell-free
Mus musculus [10] = assay: Toxicity in CD1 nude mouse xenografted with human PC3 cells assessed as mortality at 60 mg/10 mL/kg, ip q4d x 4 schedule administered on day 3 of tumor implantation measured after 31 days post tumor implantation; assay type: organism-based, PC-3; settings: in vivo, 744 h
PC-3 [11] = assay: Antimetastatic activity against human PC3 cells xenografted in CD1 nude mouse assessed as increase in life span at 60 mg/10 mL/kg, ip q4d x 4 schedule administered on day 3 of tumor implantation measured after 31 days post tumor implantation; assay type: functional
A498 = assay: Antitumor activity against human A498 cells xenografted in CD1 nude mouse assessed as tumor volume inhibition at 55 mg/10 mL/kg, ip q4d x 8 schedule administered on day 3 of tumor implantation measured after 10 days; assay type: functional
Mus musculus [12] = assay: Toxicity in CD1 nude mouse xenografted with human PC3 cells assessed as body weight loss at 60 mg/10 mL/kg, ip q4d x 4 schedule administered on day 3 of tumor implantation measured after 31 days post tumor implantation; assay type: organism-based, PC-3; settings: in vivo, 744 h

T1 sequence (P05106 27-788 limits assumed): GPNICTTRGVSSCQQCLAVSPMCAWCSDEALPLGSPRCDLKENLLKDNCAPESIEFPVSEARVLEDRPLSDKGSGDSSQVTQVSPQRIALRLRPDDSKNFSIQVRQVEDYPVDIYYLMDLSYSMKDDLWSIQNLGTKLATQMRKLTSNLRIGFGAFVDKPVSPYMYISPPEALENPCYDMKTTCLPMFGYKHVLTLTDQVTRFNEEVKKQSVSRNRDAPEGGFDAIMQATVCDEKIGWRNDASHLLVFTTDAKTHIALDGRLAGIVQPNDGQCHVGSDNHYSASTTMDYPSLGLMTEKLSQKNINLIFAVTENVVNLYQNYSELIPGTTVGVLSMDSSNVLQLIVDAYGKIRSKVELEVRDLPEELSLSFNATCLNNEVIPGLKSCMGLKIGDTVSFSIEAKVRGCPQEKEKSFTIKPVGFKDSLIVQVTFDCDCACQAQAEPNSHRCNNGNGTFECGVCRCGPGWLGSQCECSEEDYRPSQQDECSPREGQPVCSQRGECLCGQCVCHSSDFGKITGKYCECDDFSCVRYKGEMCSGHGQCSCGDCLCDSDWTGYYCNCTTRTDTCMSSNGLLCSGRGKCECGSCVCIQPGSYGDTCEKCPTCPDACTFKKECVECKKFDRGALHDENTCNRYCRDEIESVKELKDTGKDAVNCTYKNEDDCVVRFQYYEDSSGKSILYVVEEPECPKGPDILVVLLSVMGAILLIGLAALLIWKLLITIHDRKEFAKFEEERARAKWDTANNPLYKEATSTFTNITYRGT
T1 sequence (P06756 31-889 limits assumed): as the sequence (P06756 31-889 limits assumed) above
T1 sequence (P06756 891-1048 limits assumed): as the sequence (P06756 891-1048 limits assumed) above

IC50 (Integrin alpha-V/beta-3 [4]) | Structure (SMILES) | IC50 (Integrin alpha-V/beta-3 [1]) | IC50 (PC-3 [2]) | IC50 (Integrin alpha-V/beta-3 [3]) | IC50 (A2780) | IC50 (Integrin alpha-V/beta-5) | also measured
109 nM | COC(=O)c1ccc(CNC(=O)N[C@@H](CCC(=O)N2CCN(c3cccc(N=C4NCCCN4)c3)CC2)C(=O)O)cc1 |  |  |  |  |  | 
2.3 nM | COC(=O)c1ccc(COC(=O)N[C@@H](CCC(=O)N2CCN(c3cccc(NC4=NCCCN4)c3)CC2)C(=O)O)cc1 |  |  |  |  |  | 
 | CC[C@@]1(O)C(=O)OCc2c1cc1n(c2=O)Cc2c-1nc1ccc(O)cc1c2/C=N/OC(C)(C)C |  | 15 nM |  | 0.4 nM |  | 
3.26 nM | O=C(N[C@@H](CCC(=O)N1CCN(c2cccc(NC3=NCCCN3)c2)CC1)C(=O)O)OCc1ccccc1 |  |  |  |  |  | 
 | CC[C@@]1(O)C(=O)OCc2c1cc1n(c2=O)Cc2cc3cc(O)ccc3nc2-1 [HYDROXYCAMPTOTHECIN] |  | 78 nM |  | 4 nM |  | 
 | CCc1c2c(nc3ccc(O)cc13)-c1cc3c(c(=O)n1C2)COC(=O)[C@]3(O)CC [7-ETHYL-10-HYDROXYCAMPTOTHECIN] |  | 2.6 nM |  | 9 nM |  | 
 | CC[C@@]1(O)C(=O)OCc2c1cc1n(c2=O)Cc2cc3c(CN(C)C)c(O)ccc3nc2-1 [TOPOTECAN] |  | 185 nM |  | 6 nM |  | 
0.082 nM | O=C(N[C@@H](CCC(=O)N1CCN(c2cccc(N=C3NCCCN3)c2)CC1)C(=O)O)OCc1ccc(C(=O)O)cc1 | 6.3 nM |  | 17 nM |  | 2.2 nM | 
800 nM | N[C@@H](CCC(=O)N1CCN(c2cccc(NC3=NCCCN3)c2)CC1)C(=O)O |  |  |  |  |  | 

Structure (SMILES) | IC50 (Integrin alpha-V/beta-3 [4]) | IC50 (Integrin alpha-V/beta-3 [1]) | IC50 (PC-3 [2]) | IC50 (Integrin alpha-V/beta-3 [3]) | IC50 (A2780) | IC50 (Integrin alpha-V/beta-5) | also measured
CC[C@@]1(O)C(=O)OCc2c1cc1n(c2=O)Cc2cc3cc(OC(=O)N4CCN(C(=O)c5ccc(COC(=O)N[C@@H](CCC(=O)N6CCN(c7cccc(NC8=NCCCN8)c7)CC6)C(=O)O)cc5)CC4)ccc3nc2-1 | 2.28 nM | 350 nM | > 1000 nM | 730 nM | 110 nM | 2.05 nM | 
CC[C@@]1(O)C(=O)OCc2c1cc1n(c2=O)Cc2c-1nc1ccc(OC(=O)N3CCN(C(=O)c4ccc(COC(=O)N[C@@H](CCC(=O)N5CCN(c6cccc(NC7=NCCCN7)c6)CC5)C(=O)O)cc4)CC3)cc1c2/C=N/OC(C)(C)C | 4.83 nM | 130 nM | > 1000 nM | 670 nM | 67 nM | 0.76 nM | 
CC[C@@]1(O)C(=O)OCc2c1cc1n(c2=O)Cc2cc3c(CN(C)C)c(OC(=O)N4CCN(C(=O)c5ccc(COC(=O)N[C@@H](CCC(=O)N6CCN(c7cccc(NC8=NCCCN8)c7)CC6)C(=O)O)cc5)CC4)ccc3nc2-1 | 4.97 nM | 540 nM | > 1000 nM | 1000 nM | 570 nM | 0.73 nM | 
CCc1c2c(nc3ccc(OC(=O)N4CCN(C(=O)c5ccc(COC(=O)N[C@@H](CCC(=O)N6CCN(c7cccc(NC8=NCCCN8)c7)CC6)C(=O)O)cc5)CC4)cc13)-c1cc3c(c(=O)n1C2)COC(=O)[C@]3(O)CC.Cl | 1.3 nM | 37 nM | 3400 nM | 89 nM | 33 nM | 1 nM | Activity (Mus musculus [5]): 3%; Activity (Mus musculus [6]): Non-toxic; Activity (PC-3 [7]): 2.5 mm2; MST (PC-3 [8]): 63 days; half-life at 5 µM [9]: 13 h; Activity (Mus musculus [10]): Non-toxic; Activity (PC-3 [11]): 34%; inhibition (INH) (A498): 39%; Activity (Mus musculus [12]): 0%

Reference: ChEMBL document CHEMBL2150976, “Camptothecins in tumor homing via an RGD sequence mimetic” (Bioorg Med Chem Lett, 2012)
